In the supplement of paper PMC10307832:

Assays:
Assay in all cases: relative viability (nuclei count vs DMSO), 5 days (fraction); higher = more cells survive
[1] = compound: NC(=O)[C@@H](CCC(F)(F)F)N(Cc1ccc(-c2ncon2)cc1F)S(=O)(=O)c1ccc(Cl)cc1 [Avagacestat] + CC(=O)c1c(C)c2cnc(Nc3ccc(N4CCNCC4)cn3)nc2n(C2CCCC2)c1=O [Palbociclib] (partner 0.5 µM)
Method in brief: (§1)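 Cells from lung cancer lines were seeded into 1536-well plates and, one day later, dosed by pin tool. Treatments were either a single drug or a fixed dose of an anchor drug with five library-drug doses (not always all listed) in √10 steps. After 5 days, nuclei were stained in a one-step fixation (final 0.05% Triton X-100, 1% formaldehyde, 1 ug/ml Hoechst) and counted on 4× images, and relative viability is the treated-to-vehicle nuclei ratio, as the median of duplicate plates.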

Avagacestat + Pictilisib = compound: NC(=O)[C@@H](CCC(F)(F)F)N(Cc1ccc(-c2ncon2)cc1F)S(=O)(=O)c1ccc(Cl)cc1 [Avagacestat] + CS(=O)(=O)N1CCN(Cc2cc3nc(-c4cccc5[nH]ncc45)nc(N4CCOCC4)c3s2)CC1 [Pictilisib] (partner 1 µM)
Method in brief: as §1

Avagacestat + Phenformin = compound: NC(=O)[C@@H](CCC(F)(F)F)N(Cc1ccc(-c2ncon2)cc1F)S(=O)(=O)c1ccc(Cl)cc1 [Avagacestat] + N=C(N)NC(=N)NCCc1ccccc1 [Phenformin] (partner 250 µM)
Method in brief: as §1

Avagacestat + Decitabine = compound: NC(=O)[C@@H](CCC(F)(F)F)N(Cc1ccc(-c2ncon2)cc1F)S(=O)(=O)c1ccc(Cl)cc1 [Avagacestat] + Nc1ncn([C@H]2C[C@H](O)[C@@H](CO)O2)c(=O)n1 [Decitabine] (partner 2 µM)
Method in brief: as §1

| Cell Line | relative viability ([1]; first compound 0.08 µM) | relative viability ([1]; first compound 0.253 µM) | relative viability ([1]; first compound 0.8 µM) | relative viability ([1]; first compound 2.53 µM) | relative viability ([1]; first compound 8 µM) | relative viability (Avagacestat + Pictilisib; first compound 0.08 µM) | relative viability (Avagacestat + Pictilisib; first compound 0.253 µM) | relative viability (Avagacestat + Pictilisib; first compound 0.8 µM) | relative viability (Avagacestat + Pictilisib; first compound 2.53 µM) | relative viability (Avagacestat + Pictilisib; first compound 8 µM) | relative viability (Avagacestat + Phenformin; first compound 0.08 µM) | relative viability (Avagacestat + Phenformin; first compound 0.253 µM) | relative viability (Avagacestat + Phenformin; first compound 0.8 µM) | relative viability (Avagacestat + Phenformin; first compound 2.53 µM) | relative viability (Avagacestat + Phenformin; first compound 8 µM) | relative viability (Avagacestat + Decitabine; first compound 0.08 µM) | relative viability (Avagacestat + Decitabine; first compound 0.253 µM) | relative viability (Avagacestat + Decitabine; first compound 0.8 µM) | relative viability (Avagacestat + Decitabine; first compound 2.53 µM) | relative viability (Avagacestat + Decitabine; first compound 8 µM) |
| --- | --- | --- | --- | --- | --- | --- | --- | --- | --- | --- | --- | --- | --- | --- | --- | --- | --- | --- | --- | --- |
| NCI-H358 | 0.148 | 0.137 | 0.126 | 0.143 | 0.132 | 0.356 | 0.337 | 0.493 | 0.349 | 0.385 | 0.357 | 0.352 | 0.391 | 0.323 | 0.325 | 0.251 | 0.264 | 0.19 | 0.212 | 0.219 |
| SK-MES-1 | 0.318 | 0.342 | 0.329 | 0.307 | 0.32 | 0.377 | 0.387 | 0.306 | 0.294 | 0.288 | 0.739 | 0.827 | 0.721 | 0.635 | 0.606 | 0.367 | 0.415 | 0.373 | 0.329 | 0.311 |
| NCI-H1437 | 0.329 | 0.341 | 0.361 | 0.306 | 0.294 | 0.388 | 0.399 | 0.417 | 0.399 | 0.366 | 0.382 | 0.378 | 0.342 | 0.266 | 0.287 | 0.643 | 0.668 | 0.654 | 0.598 | 0.628 |
| HOP-62 | 0.461 | 0.482 | 0.412 | 0.458 | 0.366 | 0.825 | 0.778 | 0.525 | 0.573 | 0.857 | 0.874 | 0.775 | 0.76 | 0.657 | 0.492 | 0.211 | 0.229 | 0.194 | 0.221 | 0.218 |
| HARA | 0.26 | 0.237 | 0.248 | 0.263 | 0.24 | 0.368 | 0.517 | 0.417 | 0.342 | 0.373 | 0.486 | 0.516 | 0.42 | 0.486 | 0.42 | 0.4 | 0.377 | 0.621 | 0.435 | 0.448 |
| HCC-44 | 0.976 | 0.997 | 0.983 | 1.04 | 1.01 | 0.548 | 0.782 | 0.588 | 0.484 | 0.569 | 0.167 | 0.171 | 0.198 | 0.21 | 0.195 | 0.991 | 0.944 | 0.985 | 0.968 | 0.986 |
| NCI-H441 | 0.242 | 0.214 | 0.249 | 0.229 | 0.218 | 0.54 | 0.515 | 0.496 | 0.442 | 0.415 | 1.23 | 0.957 | 1.02 | 0.917 | 0.676 | 0.263 | 0.232 | 0.245 | 0.265 | 0.24 |
| NCI-H2405 | 0.512 | 0.532 | 0.478 | 0.448 | 0.489 | 0.432 | 0.465 | 0.473 | 0.329 | 0.377 | 0.393 | 0.45 | 0.44 | 0.381 | 0.408 | 0.758 | 0.703 | 0.692 | 0.673 | 0.684 |
| NCI-H1993 | 0.758 | 0.714 | 0.705 | 0.572 | 0.638 | 0.675 | 0.664 | 0.856 | 0.817 | 0.696 | 0.548 | 0.531 | 0.473 | 0.451 | 0.59 | 0.618 | 0.583 | 0.618 | 0.611 | 0.564 |
| NCI-H460 | 0.128 | 0.104 | 0.14 | 0.146 | 0.131 | 0.425 | 0.361 | 0.454 | 0.441 | 0.365 | 0.597 | 0.866 | 0.771 | 0.337 | 0.379 | 0.628 | 0.703 | 0.481 | 0.417 | 0.419 |
| ABC-1 | 0.846 | 0.542 | 0.67 | 0.654 | 0.522 | 1 | 0.753 | 0.861 | 0.679 | 0.711 | 0.232 | 0.228 | 0.221 | 0.25 | 0.263 | 1.12 | 1.26 | 1.07 | 1.17 | 1.24 |
| A-427 | 0.506 | 0.517 | 0.516 | 0.539 | 0.544 | 0.72 | 0.832 | 0.745 | 0.763 | 0.817 | 0.312 | 0.27 | 0.312 | 0.268 | 0.296 | 0.549 | 0.583 | 0.565 | 0.619 | 0.601 |
| LOU-NH91 | 0.533 | 0.482 | 0.574 | 0.52 | 0.525 | 0.491 | 0.475 | 0.559 | 0.515 | 0.498 | 0.708 | 0.652 | 0.862 | 0.717 | 0.754 | 0.868 | 0.812 | 0.84 | 0.807 | 0.79 |
| HCC-15 | 0.906 | 1.01 | 0.78 | 0.68 | 0.694 | 0.837 | 0.801 | 0.802 | 0.808 | 0.611 | 0.617 | 0.592 | 0.512 | 0.491 | 0.378 | 0.791 | 0.745 | 0.705 | 0.575 | 0.523 |
| NCI-H661 | 0.415 | 0.343 | 0.428 | 0.386 | 0.419 | 0.435 | 0.38 | 0.487 | – | 0.471 | 0.301 | 0.293 | 0.298 | 0.296 | 0.3 | 0.585 | 0.568 | 0.608 | 0.56 | 0.558 |
| HCC-366 | 0.355 | 0.34 | 0.465 | 0.332 | 0.333 | 0.137 | 0.36 | 0.0944 | 0.082 | 0.132 | 0.654 | 0.709 | 0.599 | 0.562 | 0.594 | 0.463 | 0.344 | 0.36 | 0.306 | 0.271 |
